The values that follow come from article PMC6968547, “Design, synthesis and cholinesterase inhibitory properties of new oxazole benzylamine derivatives” (Journal of Enzyme Inhibition and Medicinal Chemistry, 2020).

Like-named read-outs stand apart in the source and are kept apart here.

Test [1] deals with T1, BChE isolated from human plasma (Homo sapiens, UniProt P06276).
T1 construct: BChE isolated from human plasma; from tissue; host or cells: human plasma
Kind of test: Reversible inhibition of BChE, Ellman method. The settings on record: for IC50: 0.1 M phosphate buffer pH 7.4, 25 °C, substrate ATCh, at least three experiments. The class given is biochemical. The procedure: Inhibition potency of novel compounds was evaluated for recombinant human AChE (prepared as described earlier[25] and kindly donated by Prof Palmer Taylor, Skaggs School of Pharmacy and Pharmaceutical Sciences, University of California at San Diego, La Jolla, USA) and BChE isolated from human plasma (kindly donated by late Dr Douglas Cerasoli and Dr David Lenz, […], Edgewood, MD). The inhibition mixture contained a 0.1 M phosphate buffer, pH 7.4, enzyme, tested compound, and reagent, 5,5'-dithiobis(2-nitrobenzoic acid) (DTNB, 0.3 mM; Sigma Chemical Co., St. Louis, MO, USA). Enzyme activity was measured upon addition of substrate, acetylthiocholine (ATCh, 0.2 or 0.1 mM; Sigma Chemical Co., St. Louis, MO, USA) by the Ellman method[26] at 25 °C and 412 nm, on a Tecan Infinite M200PRO plate reader (Tecan Austria, GmbH, Salzburg, Austria). Due to the low solubility, a stock solution of the tested compounds was prepared in DMSO or methanol (Kemika, Zagreb, Croatia), and a corresponding solvent was in controls as well. The IC50 values were determined from at least three experiments by a nonlinear fit of the compound concentration logarithm values vs. % of enzyme activity using Prism6 software (GraphPad Prism 6 Software, San Diego, USA).

The target in test [2] is T2, recombinant human AChE (Homo sapiens, UniProt P22303).
T2 construct: made in house
T2 sequence (P22303 32-614): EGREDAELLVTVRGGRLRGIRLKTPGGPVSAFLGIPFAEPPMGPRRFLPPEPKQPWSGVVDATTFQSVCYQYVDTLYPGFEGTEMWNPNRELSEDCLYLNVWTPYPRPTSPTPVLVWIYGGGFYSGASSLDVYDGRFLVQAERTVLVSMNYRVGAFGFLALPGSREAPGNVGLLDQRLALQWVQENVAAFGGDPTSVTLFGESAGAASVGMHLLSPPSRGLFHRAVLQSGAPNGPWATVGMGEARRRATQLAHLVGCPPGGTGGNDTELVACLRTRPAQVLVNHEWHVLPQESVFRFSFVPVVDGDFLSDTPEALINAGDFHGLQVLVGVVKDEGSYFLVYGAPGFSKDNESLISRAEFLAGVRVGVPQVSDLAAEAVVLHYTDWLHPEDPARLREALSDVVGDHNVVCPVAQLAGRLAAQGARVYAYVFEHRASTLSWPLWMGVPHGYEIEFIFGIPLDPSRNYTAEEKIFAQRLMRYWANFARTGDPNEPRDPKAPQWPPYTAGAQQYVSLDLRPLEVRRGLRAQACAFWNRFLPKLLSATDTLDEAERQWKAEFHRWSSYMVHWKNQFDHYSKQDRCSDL
Kind of test: Reversible inhibition of AChE, Ellman method. The class given is biochemical. As to conditions: 0.1 M phosphate buffer pH 7.4, 25 °C, substrate ATCh; maximal tested concentration 100 µM for the trans derivatives (DMSO inhibits AChE); read-out: IC50 AChE (IC50 ± SE). On the technique in general: Ellman's reagent forms a yellow product with free thiols.

The mark [3] stands for this setting: read-out: IC50 BChE (IC50 ± SE).

T1 sequence (P06276 29-602): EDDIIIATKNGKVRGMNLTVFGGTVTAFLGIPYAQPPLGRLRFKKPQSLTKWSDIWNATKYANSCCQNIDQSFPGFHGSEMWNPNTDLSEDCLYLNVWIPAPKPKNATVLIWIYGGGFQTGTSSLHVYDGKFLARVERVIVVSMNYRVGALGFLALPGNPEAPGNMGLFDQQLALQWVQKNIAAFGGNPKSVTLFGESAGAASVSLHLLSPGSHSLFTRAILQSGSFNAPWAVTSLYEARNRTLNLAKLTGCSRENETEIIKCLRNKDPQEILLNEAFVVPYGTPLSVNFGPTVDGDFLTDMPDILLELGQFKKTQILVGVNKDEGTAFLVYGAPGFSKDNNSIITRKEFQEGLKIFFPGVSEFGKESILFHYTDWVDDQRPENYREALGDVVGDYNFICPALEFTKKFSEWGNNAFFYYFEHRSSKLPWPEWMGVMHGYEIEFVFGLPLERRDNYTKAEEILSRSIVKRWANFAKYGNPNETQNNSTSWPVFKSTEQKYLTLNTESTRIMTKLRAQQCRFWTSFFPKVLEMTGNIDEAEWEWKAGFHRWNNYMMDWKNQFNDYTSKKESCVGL

As usually defined, the IC50 is the point on the concentration scale where inhibition reaches its midpoint. Consider `c1ccc(CNc2ccc3ccc4ocnc4c3c2)cc1` [Compound 19, N-benzylnaphtho[1,2-d]oxazol-8-amine], for which the IC50 in test [1] (setting [3]) came to 140 ± 24 µM; in test [2], 68 ± 25 µM.

`Fc1ccc(CNc2ccc3ccc4ocnc4c3c2)cc1` [Compound 20, N-(4-fluorobenzyl)naphtho[1,2-d]oxazol-8-amine]: the IC50 in test [1] (setting [3]) worked out at 12 ± 1.3 µM; in test [2] it was 45 ± 17 µM. The “fold higher potency for BChE than counterpart trans-6” value in test [1] (ratio of IC50 vs trans-6) is recorded as “about 8 fold”.

Take `c1csc(CNc2ccc3ccc4ocnc4c3c2)c1` [Compound 21, N-(thiophen-2-ylmethyl)naphtho[1,2-d]oxazol-8-amine]: the IC50 in test [1] (setting [3]) was 35 ± 7.1 µM; in test [2], 51 ± 20 µM.

Turning to `Nc1ccc2ccc3ocnc3c2c1` [Compound 23, Naphtho[1,2-d]oxazol-8-amine], the IC50 was 1000 ± 650 µM in test [1] (setting [3]) and 120 ± 46 µM in test [2].

In the case of `CCN(CC)C(C)CN1c2ccccc2Sc2ccccc21` (centres unmarked) [Ethopropazine, reference compound], the IC50 in test [1] (IC50 BChE (IC50 ± SE)) was 0.046 ± 0.0037 µM.

In the case of `C(=C/c1cnco1)/c1ccc(NCc2cccs2)cc1` [cis-18, (Z)-4–(2-(oxazol-5-yl)vinyl)-N-(thiophen-2-ylmethyl)aniline], the IC50 is 5.7 ± 0.8 µM in test [1] (setting [3]) and 160 ± 100 µM in test [2]. Moreover, in test [1] (ratio of IC50 vs trans-12, trans-10, trans-8), the “times more potent inhibitor of BChE than trans-12, trans-10 and trans-8” value is reported as “about 5 times”.

With `Nc1ccc(/C=C\c2cnco2)cc1` [cis-22, (Z)-4–(2-(oxazol-5-yl)vinyl)aniline], the figures for the IC50 in test [1] (setting [3]) and in test [2] were 110 ± 58 µM and 190 ± 100 µM, respectively.

In the case of `C(=C\c1cnco1)/c1ccc(NCc2ccccc2)cc1` [trans-2, (E)-N-benzyl-4–(2-(oxazol-5-yl)vinyl)aniline], the IC50 in test [1] (setting [3]) was 120 ± 22 µM; in test [2], more than 100 µM.

For the compound `Cc1ccc(CNc2ccc(/C=C/c3cnco3)cc2)cc1` [trans-3, (E)-N-(4-methylbenzyl)-4–(2-(oxazol-5-yl)vinyl)aniline], the IC50 is 120 ± 19 µM in test [1] (setting [3]) and more than 100 µM in test [2].

As to `COc1ccc(CNc2ccc(/C=C/c3cnco3)cc2)cc1` [trans-4, (E)-N-(4-methoxybenzyl)-4–(2-(oxazol-5-yl)vinyl)aniline], the values for the IC50 in test [1] (setting [3]) and in test [2] were 110 ± 15 µM and more than 100 µM, respectively.

Take `Clc1ccc(CNc2ccc(/C=C/c3cnco3)cc2)cc1` [trans-5, (E)-N-(4-chlorobenzyl)-4–(2-(oxazol-5-yl)vinyl)aniline]: the IC50 in test [1] (setting [3]) was 87 ± 12 µM; in test [2], more than 100 µM.

Regarding `Fc1ccc(CNc2ccc(/C=C/c3cnco3)cc2)cc1` [trans-6, (E)-N-(4-fluorobenzyl)-4–(2-(oxazol-5-yl)vinyl)aniline], the IC50 in test [1] (setting [3]) is 80 ± 10 µM; in test [2], more than 100 µM.

Consider `Cc1cccc(CNc2ccc(/C=C/c3cnco3)cc2)c1` [trans-7, (E)-N-(3-methylbenzyl)-4–(2-(oxazol-5-yl)vinyl)aniline], for which the values for the IC50 in test [1] (setting [3]) and in test [2] were 130 ± 26 µM and more than 100 µM, respectively.

As to `COc1cccc(CNc2ccc(/C=C/c3cnco3)cc2)c1` [trans-8, (E)-N-(3-methoxybenzyl)-4–(2-(oksazol-5-yl)vinyl)aniline], the figures for the 50% inhibitory concentration (IC50) in test [1] (setting [3]) and in test [2] were 36 ± 4.4 µM and more than 100 µM, respectively.

For the compound `Fc1cccc(CNc2ccc(/C=C/c3cnco3)cc2)c1` [trans-10, (E)-N-(3-fluorobenzyl)-4–(2-(oxazol-5-yl)vinyl)aniline], the IC50 is 32 ± 5.2 µM in test [1] (setting [3]) and more than 100 µM in test [2].

As to `Cc1ccccc1CNc1ccc(/C=C/c2cnco2)cc1` [trans-11, (E)-N-(2-methylbenzyl)-4–(2-(oxazol-5-yl)vinyl)aniline], the IC50 was 160 ± 35 µM in test [1] (setting [3]) and more than 100 µM in test [2]. Further, the “fold lower BChE binding affinity than the most potent inhibitor trans-12” value in test [1] (ratio of IC50 vs trans-12) is listed as 5.5 fold.

Take `COc1ccccc1CNc1ccc(/C=C/c2cnco2)cc1` [trans-12, (E)-N-(2-methoxybenzyl)-4–(2-(oxazol-5-yl)vinyl)aniline]: the IC50 was 28 ± 5.2 µM in test [1] (setting [3]) and more than 100 µM in test [2].

Regarding `C(=C\c1cnco1)/c1ccc(NCc2ccco2)cc1` [trans-17, (E)-N-(furan-2-ylmethyl)-4–(2-(oxazol-5-yl)vinyl)aniline], the values for the IC50 in test [1] (setting [3]) and in test [2] were 65 ± 10 µM and more than 100 µM, respectively.
